Literature values in US20240197637A1, “POLYMERIC MICROPARTICLES FOR THE LOCAL TREATMENT OF CHRONIC INFLAMMATORY DISEASES” (FONDAZIONE ISTITUTO ITALIANO DI TECNOLOGIA, priority 2021, published 2024).

Test system: DMM murine model of injury-induced OA

SMILES: Cc1ccc2c(c1)C1(CCN(CCc3nc(-c4ccccc4)oc3C)CC1)OC(=O)N2 [RS 504393]
- pain perception (orally and daily administered): decreased
- severity of structural damage (orally and daily administered, early OA stage): decreased the severity of structural damage
- cartilage and bone damage (prolonged and delayed exposure): did not translate in a significant reduction
- pain (prolonged and delayed exposure): alleviating pain
